We go through 31 molecules from US20080004272A1, “Compositions and methods for modulating gated ion channels” (PainCeptor Pharma Corporation, priority 2006, published 2008).

By IC50 is commonly meant the point on the concentration scale where inhibition reaches its midpoint.

The target in test [1] is T1, ASIC1a (Homo sapiens, UniProt P78348).
T1 sequence (P78348 1-528): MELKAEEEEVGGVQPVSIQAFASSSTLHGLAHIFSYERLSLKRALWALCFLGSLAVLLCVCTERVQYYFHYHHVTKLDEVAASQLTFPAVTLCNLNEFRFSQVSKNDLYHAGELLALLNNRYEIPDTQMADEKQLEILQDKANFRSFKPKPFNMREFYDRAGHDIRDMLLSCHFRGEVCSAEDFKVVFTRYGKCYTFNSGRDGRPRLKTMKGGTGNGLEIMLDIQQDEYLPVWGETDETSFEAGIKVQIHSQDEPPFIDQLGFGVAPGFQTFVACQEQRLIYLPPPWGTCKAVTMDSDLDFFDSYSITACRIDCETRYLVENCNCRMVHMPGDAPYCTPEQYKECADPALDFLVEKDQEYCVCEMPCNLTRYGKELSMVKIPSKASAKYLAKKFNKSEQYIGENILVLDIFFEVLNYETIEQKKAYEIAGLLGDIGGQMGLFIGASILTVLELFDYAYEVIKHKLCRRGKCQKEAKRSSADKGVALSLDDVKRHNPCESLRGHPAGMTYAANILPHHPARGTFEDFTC
In words: Calcium imaging of MES-induced calcium response (FLIPR). The test is classed as cell-based. Details: host or cells: HEK293. The note with it: ASIC1a expressing HEK293 cells, MES-induced calcium response; read-out: IC50 (FLIPR). The method, then:
[…] Confluency of cells should be 80-90% on day of plating. Cells are rinsed with 10 ml of PBS and cells are re-suspended by addition of culture medium and trituration with a 25 ml pipette.
The cells are seeded at a density of approximately 1×10^6 cells/ml (100 μl/well) in black-walled, clear bottom, 96-well plates pre-treated with 10 mg/l poly-D-lysin (75 μl/well for ≧30 min). Plated cells are allowed to proliferate for 24 h before loading with dye.
Fluo-4/AM (1 mg, Molecular Probes) is dissolved in 912 μl DMSO. The Fluo-4/AM stock solution (1 mM) is diluted with culture medium to a final concentration of 2 μM (loading solution).
The culture medium is aspirated from the wells, and 50 μl of the Fluo-4/AM loading solution is added to each well. The cells are incubated at 37° C. for 30 min.
Following the second wash, 100 μl modified Assay Buffer is added to each well and the fluorescence is measured in FLIPR™ or FlexStation™ (Molecular Devices, USA), or any other suitable equipment known to the skilled in the art.
Temperature: Room temperature (20-22° C.)
First addition: 50 μl test solution at a rate of 30 μl/sec and a starting height of […]
Second addition: 50 μl MES solution (20 mM, 5 mM final concentration) at a rate of 35 μl/sec and a starting height of 150 μl.
Reading intervals: pre-incubation−10 sec×7 and 3 sec×3 antagonist phase−3 sec×7 and 10 sec×12
Addition plates (compound test plate and MES plate) are placed on the right and left positions in the FLIPR tray, respectively. Cell plates are placed in the middle position and the ASIC1a program is effectuated. FLIPR will then take the appropriate measurements in accordance with the interval settings above. Fluorescence obtained after stimulation is corrected for the mean basal fluorescence (in modified Assay Buffer).
The MES-induced peak calcium response, in the presence of test substance, is expressed relatively to the MES response alone. Test substances that block the MES-induced calcium response are re-tested in triplicates.

In test [2] the target is T1, ASIC1a. Briefly: Two-electrode voltage clamp in Xenopus laevis oocytes (Xo), acid-induced currents. The format is cell-based. More on the design: expressed in transfected cells; host or cells: Xenopus laevis oocytes (nuclear microinjection of expression vector such as pcDNA3). The note with it: Xenopus oocytes; for inhibition at 50 µM: read-out: % inh. at 50 μM (Xo). The method, then: Two-electrode voltage clamp electrophysiological assays in Xenopus laevis oocytes expressing gated ion channels are performed as follows:
Oocytes are surgically removed from adult Xenopus laevis and treated for 2 h at room temperature with 1 mg/ml type I collagenase (Sigma) in Barth's solution under mild agitation. Selected oocytes at stage IV-V are defolliculated manually before nuclear microinjection of 2.5-5 ng of a suitable expression vector, such as pcDNA3, comprising the nucleotide sequence encoding a gated ion channel subunit protein. In such an experiment, the oocytes express homomultimeric proton-gated ion channels on their surface. In an alternate experiment, one, two, three or more vectors comprising the coding sequences for distinct gated ion channel subunits are co-injected in the oocyte nuclei. In the latter case, oocytes express heteromultimeric proton-gated ion channels. For example, ASIC2a and/or ASIC3 subunits in pcDNA3 vector are co-injected at a 1:1 cDNA ratio. After 2-4 days of expression at 19° C. in Barth's solution containing […] gentamicin and 1.8 mM CaCl2, gated ion channels are activated by applying an acidic solution (pH<7) and currents are recorded in a two electrode voltage-clamp configuration, using an OC-725B amplifier (Warner Instruments). Currents are acquired and digitized at 500 Hz on an Apple Imac G3 computer with an A/D NB-MIO-16XL interface (National Instruments) and recorded traces are post-filtered at 100 Hz in Axograph (Axon Instruments) (Neher, E. and Sakmann, B. (1976) Nature 260:799-802). Once impaled with the microelectrodes, oocytes are continuously superfused at 10-12 ml/min with a modified Ringer's solution containing 97 mM NaCl, 2 mM KCl, 1.8 mM CaCl2, and 10 mM HEPES brought to pH 7.4 with NaOH (Control Ringer). Test Ringer solution is prepared by replacing HEPES with MES and adjusting the pH to the desired acidic value. Compounds of the present invention are prepared in both the Control and Test Ringer solutions and applied to oocytes at room temperature through a computer-controlled switching valve system. Osmolarity of all solutions is adjusted to 235 mOsm with choline chloride. Similarly, recordings can also be acquired in an automated multichannel oocytes system as the OpusExpress™ (Molecular Devices, Sunnyvale, USA).
FIGS. 1A and 2A illustrate the inhibitory effects of Compounds 203 and 206 on acid-induced activation of recombinant homomeric hASIC1a channels.
(In general: Two-electrode voltage clamp holds a large cell at a set potential and records current.)

Consider `COc1ccc(F)cc1-c1cc2c(c3c1CCN(C)C3)NC(=O)/C2=N\O[C@H]1O[C@@H](CO)[C@H](O)[C@@H](O)[C@@H]1O` [Compound 20], for which the IC50 at ASIC1a [1] lay in the range of 20 to 30 µM. For the same molecule, at ASIC1a [2], the inhibition at 50 µM was below 25%.

Turning to `CO/N=C1/C(=O)Nc2c1cc(-c1cc(F)ccc1OC)c1c2CN(C)CC1` [Compound 24], the IC50 on ASIC1a [1] lay in the range of 20 to 30 µM. Also, the inhibition at 50 µM at ASIC1a [2] was in the range of 40 to 60%.

On to `COc1ccc(C=O)cc1-c1cc2c(c3c1CCN(C)C3)NC(=O)/C2=N/O` [Compound 30], for which the IC50 at ASIC1a [1] was above 70 µM. Also, the inhibition at 50 µM at ASIC1a [2] is 40 to 60%.

As to `CN1CCc2c(-c3ccccc3)cc3c(c2C1)NC(=O)C31OCCO1` [Compound 76], the half-maximal inhibitory concentration (IC50) on ASIC1a [1] was 20 to 40 µM. In addition, the inhibition at 50 µM on ASIC1a [2] is below 25%.

On to `CN1CCc2c(-c3ccccc3)cc3c(c2C1)NCC31OCCO1` [Compound 77], for which the IC50 at ASIC1a [1] was above 70 µM. Besides, the inhibition at 50 µM on ASIC1a [2] was below 25%.

With `CN1CCc2c(-c3ccccc3)cc3cc[nH]c3c2C1` [Compound 78], the IC50 at ASIC1a [1] was above 70 µM. In addition, on ASIC1a [2], the inhibition at 50 µM is below 25%.

`CN1CCc2c(-c3ccccc3)cc3c(c2C1)NC(=O)C3O` (centres unmarked) [Compound 79]: on ASIC1a [1], the IC50 lay in the range of 20 to 40 µM. Further, at ASIC1a [2], the inhibition at 50 µM was below 25%.

For the molecule `CN1CCc2c(-c3ccccc3)cc3c(c2C1)C(=O)N(N)C3=O` [Compound 80], at ASIC1a [1], the half-inhibitory concentration (IC50) is above 70 µM. The inhibition at 50 µM on ASIC1a [2] was below 25%.

For the molecule `CN1CCc2c(-c3ccccc3)cc3c(c2C1)NC(=O)C3` [Compound 81], the IC50 at ASIC1a [1] is above 70 µM. Moreover, the inhibition at 50 µM at ASIC1a [2] was 20 to 40%.

Take `CN1CCc2c(-c3ccccc3)cc3c(c2C1)NC(=O)/C3=C/c1ccccc1C(=O)O` [Compound 82]: the IC50 on ASIC1a [1] was above 70 µM. On ASIC1a [2], the inhibition at 50 µM is below 25%.

Consider `COC(=O)CNc1ccc(-c2ccccc2)c2c1CN(C(=O)OC(C)(C)C)CC2` [Compound 167], for which, at ASIC1a [2], the inhibition at 50 µM is below 25%.

For the molecule `CC(C)(C)OC(=O)N1CCc2c(-c3ccccc3)ccc(N)c2C1` [Compound 168], the inhibition at 50 µM at ASIC1a [2] was below 25%.

`COC(=O)CN(C(C)=O)c1ccc(-c2ccccc2)c2c1CN(C)CC2` [Compound 169]: at ASIC1a [2], the inhibition at 50 µM is below 25%.

Turning to `CC(C)(C)OC(=O)N1CCc2c(-c3ccccc3)ccc(NCC(=O)Oc3ccccc3)c2C1` [Compound 170], the inhibition at 50 µM at ASIC1a [2] is below 25%.

As to `O=C(/C=N/O)Nc1ccc(-c2ccccc2)c2c1CNCC2` [Compound 171], the inhibition at 50 µM on ASIC1a [2] was below 25%.

With `CN1CCc2c(-c3ccccc3)cc(C#N)c(Br)c2C1` [Compound 175], the inhibition at 50 µM on ASIC1a [2] is below 25%.

Regarding `CN1CCc2c(-c3ccccc3)cc(C#N)c(Cl)c2C1` [Compound 176], the inhibition at 50 µM on ASIC1a [2] was below 25%.

For the molecule `CCN(CC)C(=O)c1cc(-c2cc(F)ccc2OC)cc(C)c1N` [Compound 188, 4-Amino-5′-fluoro-2′-methoxy-5-methyl-biphenyl-3-carboxylic acid diethylamide], the inhibition at 50 µM on ASIC1a [2] was below 25%.

Turning to `CCN(CC)C(=O)c1cc(-c2cc(F)ccc2OC)cc(C)c1N(C(=O)N1CCOCC1)C(=O)N1CCOCC1` [Compound 190, Morpholine-4-carboxylic acid (5-diethylcarbamoyl-5′-fluoro-2′-methoxy-3-methyl-biphenyl-4-yl)-(morpholine-4-carbonyl)-amide], the inhibition at 50 µM on ASIC1a [2] was below 25%.

`CCN(CC)C(=O)c1cc(-c2cc(F)ccc2OC)cc(C)c1NC(=O)N(C)C` [Compound 191, 4-(3,3-Dimethyl-ureido)-5′-fluoro-2′-methoxy-5-methyl-biphenyl-3-carboxylic acid diethylamide]: on ASIC1a [2], the inhibition at 50 µM was below 25%.

As to `CCN(CC)C(=O)c1cc(-c2cc(F)ccc2OC)cc(C)c1NC(=O)N1CCNC1=O` [Compound 192, 2-Oxo-imidazolidine-1-carboxylic acid (5-diethylcarbamoyl-5′-fluoro-2′-methoxy-3-methyl-biphenyl-4-yl)-amide], the inhibition at 50 µM on ASIC1a [2] is below 25%.

As to `CCN(CC)C(=O)c1cc(-c2cc(F)ccc2OC)cc(C)c1NC(=O)N1CCN(C(C)C)CC1` [Compound 193, 4-Isopropyl-piperazine-1-carboxylic acid (5-diethylcarbamoyl-5′-fluoro-2′-methoxy-3-methyl-biphenyl-4-yl)-amide], the inhibition at 50 µM on ASIC1a [2] was below 25%.

For the molecule `COc1ccc(F)cc1-c1cc(C#N)c(N(C(C)=O)C(C)=O)c2c1CCN(C)C2` [Compound 194, N-Acetyl-N-[7-cyano-5-(5-fluoro-2-methoxy-phenyl)-2-methyl-1,2,3,4-tetrahydro-isoquinolin-8-yl]-acetamide], the inhibition at 50 µM at ASIC1a [2] is below 25%.

For the molecule `COc1ccc(F)cc1-c1cc(C#N)c(NC(C)=O)c2c1CCN(C)C2` [Compound 195, N-[7-Cyano-5-(5-fluoro-2-methoxy-phenyl)-2-methyl-1,2,3,4-tetrahydro-isoquinolin-8-yl]-acetamide], the inhibition at 50 µM at ASIC1a [2] is 25 to 40%.

Turning to `COc1ccc(F)cc1-c1cc(C#N)c(N(S(C)(=O)=O)S(C)(=O)=O)c2c1CCN(C)C2` [Compound 196, N-[7-Cyano-5-(5-fluoro-2-methoxy-phenyl)-2-methyl-1,2,3,4-tetrahydro-isoquinolin-8-yl]-dimethanesulfonamide], the inhibition at 50 µM at ASIC1a [2] is below 25%.

On to `CCOC(=O)CNc1ccc(-c2ccccc2)c2c1CN(C)CC2` [Compound 204, (2-Methyl-5-phenyl-1,2,3,4-tetrahydro-isoquinolin-8-ylamino)-acetic acid ethyl ester], for which the IC50 at ASIC1a [2] (table value, read-out: IC50 (Xo)) was above 50 µM.

In the case of `COC(=O)CNc1ccc(-c2ccccc2)c2c1CN(C)CC2` [Compound 205, (2-Methyl-5-phenyl-1,2,3,4-tetrahydro-isoquinolin-8-ylamino)-acetic acid methyl ester], at ASIC1a [2], the inhibition at 50 µM was in the range of 20 to 40%.

As for `CN1CCc2c(-c3ccccc3)cc(/C(N)=N/O)c(N)c2C1` [Compound 207], at ASIC1a [2], the inhibition at 50 µM is above 50%.

On to `COc1ccc(F)cc1-c1cc(/C(N)=N/O)c(N)c2c1CCN(C)C2` [Compound 208], for which the inhibition at 50 µM at ASIC1a [2] is 20 to 40%.

In the case of `COc1ccc(F)cc1-c1cc(C#N)c(N2C(=O)CCC2=O)c2c1CCN(C)C2` [Compound 211], the inhibition at 50 µM on ASIC1a [2] was below 25%.

As for `CCN1CCc2c(-c3ccccc3)cc3[nH]c(=O)[nH]c3c2C1` [Compound 222], the inhibition at 50 µM at ASIC1a [2] is below 25%.
